Laboratory results taken from article PMC5470052, “Brain Activation by H1 Antihistamines Challenges Conventional View of Their Mechanism of Action in Motion Sickness: A Behavioral, c-Fos and Physiological Study in Suncus murinus (House Musk Shrew)” (Frontiers in Physiology, 2017).

System: T1, histamine H1 receptor
T1 construct: gene HRH1; native receptor in isolated ileal segments
Experiment: organ bath, antagonism of histamine-induced contraction of isolated ileum; double reciprocal analysis
Parameters: species or system Suncus murinus

Compound `O=C(O)COCCN1CCN(C(c2ccccc2)c2ccc(Cl)cc2)CC1` (stereo not shown) [cetirizine] has a Kb of 8.4 pKb.
